# “Also recorded” adds a separate entry of the source. Like-named read-outs stand apart in the source and are kept apart here.
# What was measured:
# OCUT-2 = test: Cell growth with STAT1 activator 2-NP; assay type: cell-based; conditions: 0-50 μM 2-NP, 24 hours
# Protocol: (§1) Growth Assays. Cell growth was measured either through live cell imaging or by cell counting at discrete points. Live cell imaging was used to assess the growth kinetics of SW-EV and SW-TRβ. To perform live cell imaging, 5000 cells were plated per well in 24 well plates. After 24 hours in phenol red free, charcoal stripped media, media was supplemented with either 10^−8 M T3 or equivolume vehicle (NaOH). Every two hours cells were imaged with a Lionheart automated microscope (BioTek) and quantified with Gen5 software (BioTek). The cells entered the log phase of growth at approximately 48 hours, and the portion of the curve following this point was used to calculate the doubling time of the cells. In order to measure growth manually, 25,000 cells were plated per well in a six well plate. Cells were grown in full thyroid media with the addition of 2-(1,8-Naphthyridin-2-yl)phenol (2-NP) (Abcam) or vehicle (DMSO). Every 24 hours cell counts were assessed by hemocytometer.
# (§2) STAT1 has anti-proliferative activity, raising the question whether it can be exploited pharmacologically to reduce ATC growth. Baseline expression of key genes in the JAK1-STAT1 pathway and TR isoform levels (TRβ and TRα) in 3 additional anaplastic thyroid cancer cell lines are illustrated in FIG. 10C.
# KTC-2 [1] = test: Cell growth with STAT1 activator 2-NP; assay type: cell-based; conditions: 0-50 μM 2-NP, 24 hours
# Protocol: as §1, §2
# SW1736 = test: Cell growth with STAT1 activator 2-NP; assay type: cell-based, human; conditions: 0-50 μM 2-NP, 24 hours
# Protocol: as §1, §2
# [2] = system: MDA-MB-468 cells (EV, TRβ); test: Mammosphere growth, triple negative breast cancer cells; assay type: cell-based
# Source text: Data are mean+/−SD; * indicates p<0.05 determined by t-test.
# [3] = system: SW1736, 8505C, OCUT2, and KTC-2 cells; test: Cell migration by scratch (wound healing) assay, inhibitors with or without GC-1; assay type: cell-based, human
# Protocol: Migration Assay. Cell migration was determined by wound healing assay. Cells were plated and allowed to grow to 100% confluency. Four hours prior to scratching, cells were treated with […] Mitomycin C. A scratch was performed with a P1000 pipette tip and debris was washed away with PBS. […] Images were obtained at 0, 16, 24, 48, and 72 hours or until 100% wound closure, depending on the cell type. The wound closure was measured using the ImageJ macro “Wound Healing Tool” (https://github.com/MontpellierRessourcesImagerie/imagej_macros_and_scripts/wiki/Wound-Healing-Tool). Percent closure was calculated relative to the area of the initial scratch.
# KTC-2 [4] = test: Xenograft model of anaplastic thyroid tumor; assay type: in vivo, SCID female mice; conditions: KTC-2 subcutaneous xenograft, GC-1 0.3 mg/Kg, Buparlisib 5 mg/Kg, approximately 6 week study
# Protocol: Doses of Buparlisib tested in xenograft studies range from 5 mg/Kg to 20 mg/Kg.
# Drugs were prepared at concentrations suitable for intraperitoneal (i.p.) injection of 5 μL/g body weight. […] Drug stocks were prepared by dissolving sobetirome and Sob-AM2 at 1 mg/mL in dimethyl sulfoxide (DMSO). […] Vehicles were prepared with 20% DMSO in saline.”
# Buparlisib was used as a 5 mg/kg buparlisib treatment (recommended by Novartis). Buparlisib suspension was prepared in 0.5% methyl cellulose and 0.5% Tween20.
# Tumors were established by subcutaneous injection of 5×10^6 tumor cells in 100 μL of phosphate-buffered saline into the flank region into SCID female mice. Thyroid cancer occurs in females ˜4× more often than in males. As funding is available; both males and females will be tested.
# The study was approximately a 6 week study. Tumor mass was measured, and tumors and tissues were saved for IHC and RNAseq.
# [5] = system: MDA-MB-468 cells (EV, TRβ); test: Relative cell growth by cell counting, triple negative breast cancer cells; assay type: cell-based; conditions: MDA-MB-468-TRβ, 10 nM GC-1, 8 days
# Source text: MDA-MB-468 cells were transduced with empty vector (EV) (FIGS. 29A, 29C) or thyroid hormone receptor beta (TRβ) (FIGS. 29B, 29D) and maintained in complete media. […] Data are mean+/−SD; * indicates p<0.05 determined by t-test.
# [6] = system: SW1736 cells (SW-EV, SW-TRβ); test: Buparlisib with or without GC-1, cell viability/growth, 24 hr; assay type: cell-based, human
# Protocol: SW1736 cells transduced with lentiviral vector (EV) or lentiviral vector containing TRβ (TRβ) were treated with buparlisib (0 μM, 0.1 μM, 1 μM, or 10 μM) for 24 hours.
# [7] = system: SW1736, 8505C, OCUT2, and KTC-2 cells; conditions: GC-1 concentrations higher than 10^-8M
# MCF7 = test: Mammosphere growth, Luminal A breast cancer cells; assay type: cell-based
# [8] = system: SW1736 cells (SW-EV, SW-TRβ); conditions: SW-TRβ1, GC-1 10^−8M
# Protocol: (§3) Tumorsphere Assay. Cancer stem cell tumorspheres formed from ATC cells (thyrospheres) were used to assess self-renewal and sphere-forming efficiency. For generating thyrospheres, adherent monolayer cells were dissociated with Trypsin-EDTA, and single cells were moved to round-bottom ultra-low attachment 24-well plates at a density of 1000 cells/well (Corning). […] Where indicated, adherent cells were treated with 0.5 μM Buparlisib, 0.5 μM Alpelisib, 1 nM Palbociclib, 5 μM Sorafenib, or vehicle for 72 hours prior to thyrosphere-forming assay. […] Thyrospheres grew for seven days and were then counted with an inverted microscope.
# [9] = system: SW1736 cells (SW-EV, SW-TRβ); assay type: cell-based, human; conditions: for ATC cell death: GC-1 10^−8 M; for reduction in cell growth (AUC of growth curve): GC-1 10^−8M, 4 days
# [10] = system: MDA-MB-468 cells (EV, TRβ); conditions: triple negative breast cancer cells with low TRβ expression
# Protocol: Triple negative breast cancer were examined next. […] TNBC cancers and other advanced solid tumors have lower endogenous levels of expression of TRβ. […] Cell migration was measured by scratch assay (FIG. 28). […] Data are mean+/−SD; *indicates p<0.05 determined by t-test.
# [11] = system: SW1736 cells (SW-EV, SW-TRβ); test: Apoptosis assay (PARP1 and caspase 3 cleavage, immunoblot); assay type: cell-based, human; conditions: SW-TRβ
# Source text: Immunoblot Analysis. […] Proteins were resolved by polyacrylamide gel electrophoresis on 10% sodium dodecyl sulfate gels EC60752 (Life Technologies) and immobilized onto nitrocellulose membranes (GE Healthcare) by electroblot (Bio-Rad Laboratories). Specific proteins were detected by immunoblotting with the indicated antibodies (Table 4); immunoreactive proteins were detected by enhanced chemiluminescence (Thermo Scientific) on a ChemiDoc XRS+ (Bio-Rad Laboratories).
# Apoptosis Assay. Cells were plated at a density of 50,000 cells/well and treated with vehicle (1 N NaOH) or 10^−8 M T3. After 5 days the cells were lysed for analysis by immunoblot. Poly (ADP-ribose) polymerase 1 (PARP1) and Caspase 3 cleavage were assessed to measure apoptotic signaling.
# Immunoblot Analysis. […] Proteins were resolved by polyacrylamide gel electrophoresis on 10% sodium dodecyl sulfate gels EC60752 (Thermo Fisher Scientific) and immobilized onto nitrocellulose membranes (GE Healthcare, Chicago, Ill., USA) by electroblot (Bio-Rad Laboratories, Hercules, Calif., USA). Specific proteins were detected by immunoblotting with the indicated antibodies (Table 4); immunoreactive proteins were detected by enhanced chemiluminescence (Thermo Scientific) on a ChemiDoc XRS+ (Bio-Rad Laboratories).
# [12] = system: SW1736 cells (SW-EV, SW-TRβ); test: LY294002 inhibition of ATC cell migration; assay type: cell-based, human; conditions: presence of liganded TRβ (SW-TRβ vs SW-EV)
# Protocol: Migration Assay. Cell migration was determined by wound healing assay. Cells were plated and allowed to grow to 100% confluency. Two hours prior to scratching, cells were treated with […] Mitomycin C. A scratch was performed with a P1000 pipette tip and debris was washed away with PBS. Migration media was supplemented with 10^−8 M T3. Images were obtained at 0, 24, 48, and 72 hours. Wound closure was measured using ImageJ macro “Wound Healing Tool” (http://dev.mri.cnrs.fr/projects/imagej-macros/wiki/Wound_Healing_Tool). Values were normalized so that the initial scratch was 0% closure.
# TRβ also enhances PI3K inhibitor LY294002 inhibition of ATC cell growth and cell migration. […] LY294002 induces a 50% reduction in growth of normal-like thyroid cells NthyOri in which TRβ is expressed. […] Liganded TRβ suppresses ATC cell growth and migration as a tumor suppressor and critically enhances the effectiveness of a potential therapeutic agent.
# NthyOri = test: LY294002 growth of normal-like thyroid cells; assay type: cell-based; conditions: normal-like thyroid cells NthyOri in which TRβ is expressed
# PI3K = PI3K activity by pAkt and p mTOR immunoblot; assay type: cell-based, human; conditions: SW-TRβ vs SW-EV, LY294002 24 hr, T3 10^−8 M
# Protocol: Immunoblot Analysis. Proteins were isolated from whole cells in lysis buffer (20 mM Tris-HCl [pH 8], 137 mM NaCl, 10% glycerol, 1% Triton X-100, and 2 mM EDTA) containing Protease Inhibitor Cocktail 78410 (Thermo Scientific). Proteins were resolved by polyacrylamide gel electrophoresis on 10% sodium dodecyl sulfate gels EC60752 (Life Technologies) and immobilized onto nitrocellulose membranes (GE Healthcare) by electroblot (Bio-Rad Laboratories). Specific proteins were detected by immunoblotting with the indicated antibodies (Table 4); immunoreactive proteins were detected by enhanced chemiluminescence (Thermo Scientific) on a ChemiDoc XRS+ (Bio-Rad Laboratories).
# [13] = system: SW1736 cells (SW-EV, SW-TRβ); test: LY294002 inhibition of ATC cell growth; assay type: cell-based; conditions: Homo sapiens
# [14] = system: SW1736, 8505C, OCUT2, and KTC-2 cells; test: Thyrosphere outgrowth, unmodified ATC cell lines; assay type: cell-based, human; conditions: inhibitor three days before plating, or 10 nM GC-1 for 7 days
# Protocol: as §3
smiles,measurement,setting,value
"Oc1ccccc1-c1ccc2cccnc2n1 [2-NP, 2-(1,8-naphthyridin-2-yl)phenol]",reduction in cell growth,OCUT-2,recapitulates the effect of T3-TRβ
same,reduction in cell growth,KTC-2 [1],recapitulates the effect of T3-TRβ
same,reduction in cell growth,SW1736,recapitulates the effect of T3-TRβ; also recorded: most responsive
"Nc1cc(C(F)(F)F)c(-c2cc(N3CCOCC3)nc(N3CCOCC3)n2)cn1 [Buparlisib, 5-(2,6-dimorpholin-4-ylpyrimidin-4-yl)-4-(trifluoromethyl)pyridin-2-amine]","mammosphere growth, Buparlisib in the presence of GC-1","[2]; 10 nM GC-1, 5 days",increases the efficacy of Buparlisib to reduced mammosphere growth
same,reduction of effective Buparlisib in the presence of GC-1,[2]; mammospheres from MDA-MB-468-TRβ cells,50%
same,"wound closure, inhibitor combined with GC-1","[3]; KTC-2 cells, GC-1 10^−8M plus 0.5 μM Buparlisib",exception
same,metastases,KTC-2 [4],detectable metastases to the heart
same,tumor growth,KTC-2 [4],smaller non-nodular growth
same,"cell growth, combination with GC-1",[5],synergistic effect to reduce cell growth
same,toxicity to cells,[6]; 10 μM,toxic
same,cell viability,"[6]; SW-EV, buparlisib alone 0-10 μM",concentration dependent decrease in cell viability
same,sensitivity of cell growth to buparlisib,[6]; SW-TRβ plus GC-1 10^−8M,increase the sensitivity to buparlisib at 0.1 and 1 μM
same,"EC50, cell viability",[6]; SW-TRβ vs SW-EV,significantly reduced EC50
"Cc1cc(OCC(=O)O)cc(C)c1Cc1ccc(O)c(C(C)C)c1 [GC-1, 2-[4-[(4-hydroxy-3-propan-2-ylphenyl)methyl]-3,5-dimethylphenoxy]acetic acid]",cell toxicity,[7],cause cell toxicity
same,mammosphere formation,"MCF7; MCF7, 10 nM GC-1 alone",could reduce mammosphere formation
same,"wound closure, agent alone",[3]; GC-1 10^−8M or inhibitor alone,able to prevent wound closure of all tumor cell lines with similar success as each inhibitor alone
same,metastases,KTC-2 [4],no visually detectable metastases
same,tumor vascularization,KTC-2 [4],minimal vascularization
same,reduction in thyrosphere formation,[8],greater than 80%
same,ATC cell death,[9]; SW1736 with endogenous TRβ (EV),induces ATC cell death
same,reduction in cell growth (AUC of growth curve),[9]; SW-EV,50%
same,ATC cell death,[9]; SW-TRβ (lentiviral transduction),amplified with higher levels of TRβ
same,reduction in cell growth (AUC of growth curve),[9]; SW-TRβ,75%
same,cell migration,[10],able to slow migration
same,cleaved PARP and cleaved caspase 3,"[11]; GC-1, 5 days",significantly increased the presence of cleaved PARP and cleaved caspase 3
same,apoptosis (cleaved PARP and caspase),[11]; five days,induces apoptosis
"O=c1cc(N2CCOCC2)oc2c(-c3ccccc3)cccc12 [LY294002, 2-(morpholin-4-yl)-8-phenyl-4H-chromen-4-one]",inhibition of ATC cell migration,[12],enhances LY294002 inhibition of ATC cell migration
same,reduction in growth,NthyOri,50%
same,pAkt vs total Akt and p mTOR vs total mTOR,PI3K,decreased pAkt compared with total Akt and decreased p mTOR compared with total mTOR
same,EC50,"[13]; SW-1736, SW-EV (no TRβ re-expression), T3",5.21 µM
same,EC50,"[13]; SW-1736, SW-EV, unit inferred",5.21 µM
same,EC50,"[13]; SW-1736, SW-TRβ, liganded (T3)",1.13 µM
same,EC50,"[13]; SW-1736, SW-TRβ, liganded (T3), unit inferred",1.13 µM
"CC(=O)c1c(C)c2cnc(Nc3ccc(N4CCNCC4)cn3)nc2n(C2CCCC2)c1=O [Palbociclib, 6-acetyl-8-cyclopentyl-5-methyl-2-[(5-piperazin-1-ylpyridin-2-yl)amino]pyrido[6,5-d]pyrimidin-7-one]","cell growth, combination with GC-1",[5],synergistic effect to reduce cell growth
"CNC(=O)c1cc(Oc2ccc(NC(=O)Nc3ccc(Cl)c(C(F)(F)F)c3)cc2)ccn1 [Sorafenib, 4-[4-[[4-chloro-3-(trifluoromethyl)phenyl]carbamoylamino]phenoxy]-N-methylpyridine-2-carboxamide]","thyrosphere formation/outgrowth, agent alone",[14],most effective overall
CC/C(=C(\c1ccccc1)c1ccc(OCCN(C)C)cc1)c1ccccc1 [tamoxifen],effect of inhibitor in the presence of GC-1,"MCF7; MCF7, 10 nM GC-1, 5 days",enhanced the effect
